{"source": "patent US20060286547A1", "about": "“Time-of-addition assay for identifying anti-viral compounds” (priority 2003, published 2006)", "tested_on": "HIV-1 (strain 111B)", "experiment": "Time-of-addition assay with luminescent cells in 96- and 384-well plates", "format": "cell-based", "settings": "early stages of addition; ATA 5 μM, AMD3100 and T20 1 μM; 96-well and 384-well plates; FIG. 6 and FIG. 7", "protocol": "A MT4 cell line was used In the present example expressing a luciferase reporter gene under the control of a HIV-1-LTR promoter element. Cells were counted and a cell suspension of 500.000 ml or 350.000 ml was made for use in 96-well or 384 wells, respectively. The cells were centrifuged for 10 minutes at 400 g. Subsequently, cells were infected with at high multiplicity of infection with HIV-1 (strain 111B) at a host cell/virus titer of 1/1. Unabsorbed virus was removed by two washing steps in order to synchronize the infection. After the second washing step, cells were resuspended and the suspensions were distributed in the wells of a micro-titer plate in an amount of 95 μl or 36 μl in a 96-well or a 384 well format, respectively. At predefined time points 5 μl (96 well) and 4 μl (384 well) of compound was added. As compounds to be tested, reference compounds having well known mechanisms of action were included in the plates. […]\nATA was used in a concentration of 5 μM; AMD3100, T20 EFV ad SQV were used in a concentration of 1 μM and TMC143205 was used in a concentration of 1 μM. […] 100 μl Luc-lit™ substrate was added to each well and luminescence was monitored by processing the 96- and 384-well plates in a PerkinElmer-Viewlux™ within 30 minutes. HIV replication was quantified by measuring the luciferase signal."}
{"smiles": "O=C(O)C1=CC(=C(c2ccc(O)c(C(=O)O)c2)c2ccc(O)c(C(=O)O)c2)C=CC1=O", "note": "[ATA]", "values": [{"measurement": "inhibitory activity as a function of time of addition", "result": "strong inhibitory activity"}]}
{"smiles": "c1cc(CN2CCCNCCNCCCNCC2)ccc1CN1CCCNCCNCCCNCC1", "note": "[AMD3100]", "values": [{"measurement": "inhibitory activity as a function of time of addition", "result": "strong inhibitory activity"}]}
